According to EP0040696B1, “Aminothiadiazoles as gastric secretion inhibitors” (Merck & Co., Inc., priority 1980, dated 1981):

Experiments:
gastric secretion = assay: Gastric secretion inhibitory activity of intermediate compounds (test not specified)
From the text: Thus, such intermediate compounds are deemed to constitute part of this invention.

[1] = test system: histamine evoked gastric secretion; assay: Inhibition of histamine evoked gastric secretion in dogs with a chronic gastric fistula; format: in vivo, female beagle dogs; details: Canis lupus familiaris, iv, 0.5 h, read-out: IV ED50 (mg/kg) Total acid output
Procedure: […] Studies are performed in female beagle dogs with a chronic gastric fistula. The test compounds are administered i.v. at 0 min. Gastric secretion is stimulated by administration of a maximal secretory dose of histamine dihydrochloride ([…], base, s.c.) at 0 min. Gastric output is collected by gravity drainage for three 30 min periods (0-30, 30-60 and 60-90 min). Output volume (ml) is measured and an aliquot is titrated to pH 7 to determine acid concentration (titratable acid mEq/L); total acid output (mEq) is calculated as the product of volume and acid concentration. […]. Percent.inhibition of volume, acid concentration and total acid output is calculated relative to a placebo trial in the same animals; ED50 values are determined by linear regression analysis.

SMILES	gastric secretion inhibitory activity (gastric secretion)	ED50 [1] [mg/kg]
CCOC1=NS(=O)(=O)N=C1NCCSCc1ccc(CN(C)C)o1 [3-N-[2-[(5-dimethylaminomethyl-2-furanyl)methylthio]ethyl]amino-4-ethoxy-1,2,5-thiadiazde-1,1-dioxide]	substantial gastric secretion inhibitory activity	
CN(C)Cc1ccc(CSCCNc2n[nH]c(N)n2)o1 [C, 3-N-[2-[(5-Dimethylaminomethyl-2-furanyl)methylthio]ethyl]amino-5-amino-1,2,4-triazole]		1.1
CNC(=NCCSCc1[nH]cnc1C)NC#N [D, N-Cyano-N'-methyl-N''-[2-((4-methyl-5-imidazolyl)methylthio)ethyl]guanidine]		1.8
CCOc1n[s+]([O-])nc1NCCSCc1ccc(CN(C)C)o1 (stereo not shown) [3-N-[2-[(5-dimethylaminomethyl-2-furanyl)methylthio]ethyl]amino-4-ethoxy-1,2,5-thiadiazole-1-oxide]	substantial gastric secretion inhibitory activity	
